These results are taken from patent publication US20080242663A1, “NOVEL PYRIMIDINE DERIVATIVES 698” (ASTRAZENECA AB, priority 2007, published 2008).

One may read the IC50 as the concentration that gives 50% inhibition.

The assay addresses T1, recombinant EphB4 (Homo sapiens, UniProt P54760).
T1 construct: amino acids 563-987; Swiss-Prot Acc; No. P54760; purchased ProQinase GmbH 0178-0000-3
T1 sequence (P54760 563-987): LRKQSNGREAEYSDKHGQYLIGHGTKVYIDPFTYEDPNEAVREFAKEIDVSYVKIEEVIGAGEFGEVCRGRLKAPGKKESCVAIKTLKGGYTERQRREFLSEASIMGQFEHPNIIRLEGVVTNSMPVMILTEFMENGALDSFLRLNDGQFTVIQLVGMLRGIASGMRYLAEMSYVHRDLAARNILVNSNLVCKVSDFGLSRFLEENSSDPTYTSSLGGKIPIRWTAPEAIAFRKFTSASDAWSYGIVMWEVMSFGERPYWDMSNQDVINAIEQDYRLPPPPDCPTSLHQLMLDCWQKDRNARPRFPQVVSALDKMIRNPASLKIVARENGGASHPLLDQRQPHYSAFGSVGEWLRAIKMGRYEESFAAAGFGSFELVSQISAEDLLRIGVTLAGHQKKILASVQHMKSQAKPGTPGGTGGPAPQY
Nature of the assay: In vitro EphB4 enzyme assay (Alphascreen). The assay is classed as biochemical. The method, then: This assay detects inhibitors of EphB4-mediated phosphorylation of a polypeptide substrate using Alphascreen™ luminescence detection technology. Briefly, recombinant EphB4 was incubated with a biotinylated-polypeptide substrate (biotin-poly-GAT) in presence of magnesium-ATP. The reaction was stopped by addition of EDTA, together with streptavidin-coated donor beads which bind the biotin-substrate containing any phosphorylated tyrosine residues. Anti-phosphotyrosine antibodies present on acceptor beads bind to phosphorylated substrate, thus bringing the donor & acceptor beads into close proximity. Subsequent excitation of the donor beads at 680 nm generated singlet oxygen species that interact with a chemiluminescer on the acceptor beads, leading to light emission at 520-620 nm. The signal intensity is directly proportional to the level of substrate phosphorylation and thus inhibition is measured by a decrease in signal.
Assay plates were then incubated at room temperature for 1 hr. […] The plates were sealed under natural lighting conditions, wrapped in aluminium foil and incubated in the dark for a further 20 hrs.
The resulting assay signal was determined on the Perkin Elmer EnVision plate reader. The minimum value was subtracted from all values, and the signal plotted against compound concentration to generate IC50 data.
(Bead proximity is the source of the signal in Alpha formats.)
As to `Cc1ccc(CO)cc1N(C)c1ccnc(Nc2cc(N3CCOCC3)cc(N3CCC(=O)CC3)c2)n1` [Example 7.19, 1-(3-(4-((5-(hydroxymethyl)-2-methylphenyl)(methyl)amino)pyrimidin-2-ylamino)-5-morpholinophenyl)piperidin-4-one], the IC50 amounted to 9.73 nM.
On to `CCN(c1ccnc(Nc2cc(N3CCOCC3)cc(S(C)(=O)=O)c2)n1)c1cc(CO)ccc1C` [Example 8.1, [3-[ethyl-[2-[(3-methylsulfonyl-5-morpholin-4-yl-phenyl)amino]pyrimidin-4-yl]amino]-4-methyl-phenyl]methanol], for which the concentration for half-maximal inhibition (IC50) came to 414 nM.
As to `Cc1ccc(CO)cc1N(CC(C)C)c1ccnc(Nc2cc(N3CCOCC3)cc(S(C)(=O)=O)c2)n1` [Example 8.3, [4-methyl-3-[2-methylpropyl-[2-[(3-methylsulfonyl-5-morpholin-4-yl-phenyl)amino]pyrimidin-4-yl]amino]phenyl]methanol], the 50% inhibitory concentration (IC50) turned out to be 917 nM.
`Cc1ccc(CO)cc1N(CC1CC1)c1ccnc(Nc2cc(N3CCOCC3)cc(S(C)(=O)=O)c2)n1` [Example 8.4, [3-[cyclopropyl-methyl-[2-[(3-methylsulfonyl-5-morpholin-4-yl-phenyl)amino]pyrimidin-4-yl]amino]-4-methyl-phenyl]methanol]: the IC50 is 1070 nM.
Take `Cc1ccc(N(C)c2ccnc(Nc3cc(N4CCOCC4)cc(N4CCOCC4)c3)n2)cc1` [Example 10.1, N-(3,5-dimorpholin-4-ylphenyl)-N′-methyl-N′-(4-methylphenyl)pyrimidine-2,4-diamine]: the IC50 was found to be 402 nM.
With `CN(c1cccc(F)c1)c1ccnc(Nc2cc(N3CCOCC3)cc(N3CCOCC3)c2)n1` [Example 10.5, N-(3,5-dimorpholin-4-ylphenyl)-N′-(3-fluorophenyl)-N′-methyl-pyrimidine-2,4-diamine] the figure was 340 nM.
In the case of `CSc1cccc(N(C)c2ccnc(Nc3cc(N4CCOCC4)cc(N4CCOCC4)c3)n2)c1` [Example 10.7, N-(3,5-dimorpholin-4-ylphenyl)-N′-methyl-N′-(3-methylsulfanylphenyl)pyrimidine-2,4-diamine], the IC50 came out at 638 nM.
Consider `Cc1cc(C)cc(N(C)c2ccnc(Nc3cc(N4CCOCC4)cc(N4CCOCC4)c3)n2)c1` [Example 10.8, N′-(3,5-dimethylphenyl)-N-(3,5-dimorpholin-4-ylphenyl)-N′-methyl-pyrimidine-2,4-diamine], for which the IC50 is 1100 nM.
For `CN(c1cccc(C#N)c1)c1ccnc(Nc2cc(N3CCOCC3)cc(N3CCOCC3)c2)n1` [Example 10.10, 3-[[2-[(3,5-dimorpholin-4-ylphenyl)amino]pyrimidin-4-yl]-methyl-amino]benzonitrile], the concentration for half-maximal inhibition (IC50) worked out at 527 nM.
With `CN(c1ccc(Cl)c(Cl)c1)c1ccnc(Nc2cc(N3CCOCC3)cc(N3CCOCC3)c2)n1` [Example 10.11, N′-(3,4-dichlorophenyl)-N-(3,5-dimorpholin-4-ylphenyl)-N′-methyl-pyrimidine-2,4-diamine] the figure was 660 nM; with `COc1ccccc1N(C)c1ccnc(Nc2cc(N3CCOCC3)cc(N3CCOCC3)c2)n1` [Example 10.12, N-(3,5-dimorpholin-4-ylphenyl)-N′-(2-methoxyphenyl)-N′-methyl-pyrimidine-2,4-diamine], 107 nM; with `Cc1cc(C)c(N(C)c2ccnc(Nc3cc(N4CCOCC4)cc(N4CCOCC4)c3)n2)c(C)c1` [Example 10.13, N-(3,5-dimorpholin-4-ylphenyl)-N′-methyl-N′-(2,4,6-trimethylphenyl)pyrimidine-2,4-diamine], 811 nM.
With `CN(c1ccnc(Nc2cc(N3CCOCC3)cc(N3CCOCC3)c2)n1)c1ccc(F)cc1F` [Example 10.14, N′-(2,4-difluorophenyl)-N-(3,5-dimorpholin-4-ylphenyl)-N′-methyl-pyrimidine-2,4-diamine] the figure was 381 nM.
As for `CN(c1ccnc(Nc2cc(N3CCOCC3)cc(N3CCOCC3)c2)n1)c1ccccc1F` [Example 10.16, N-(3,5-dimorpholin-4-ylphenyl)-N′-(2-fluorophenyl)-N′-methyl-pyrimidine-2,4-diamine], the figure is 237 nM.
With `CN(c1ccc(C#N)cc1)c1ccnc(Nc2cc(N3CCOCC3)cc(N3CCOCC3)c2)n1` [Example 10.17, 4-[[2-[(3,5-dimorpholin-4-ylphenyl)amino]pyrim-idin-4-yl]-methyl-amino]benzonitrile], the half-inhibitory concentration (IC50) was determined as 9780 nM.
On to `CN(c1ccnc(Nc2cc(N3CCOCC3)cc(N3CCOCC3)c2)n1)c1cc(CO)ccc1Cl` [Example 10.19, [4-chloro-3-[[2-[(3,5-dimorpholin-4-ylphenyl)amino]pyrimidin-4-yl]-methyl-amino]phenyl]methanol], for which the IC50 came to 150 nM.
Take `CN(c1cc(Cl)cc(CO)c1)c1ccnc(Nc2cc(N3CCOCC3)cc(N3CCOCC3)c2)n1` [Example 10.20, [3-chloro-5-[[2-[(3,5-dimorpholin-4-ylphenyl)amino]pyrimidin-4-yl]-methyl-amino]phenyl]methanol]: the 50% inhibitory concentration (IC50) amounted to 338 nM.
For the compound `COc1ccc(C)c(N(C)c2ccnc(Nc3cc(N4CCOCC4)cc(S(C)(=O)=O)c3)n2)c1` [Example 12.2, N′-(5-methoxy-2-methyl-phenyl)-N′-methyl-N-(3-methylsulfonyl-5-morpholin-4-yl-phenyl)pyrimidine-2,4-diamine], the IC50 worked out at 29.4 nM.
As for `COc1ccc(C)c(N(C)c2ccnc(Nc3cc(C(=O)N(C)C)cc(N4CCOCC4)c3)n2)c1` [Example 12.3, 3-[[4-[(5-methoxy-2-methyl-phenyl)-methyl-amino]pyrimidin-2-yl]amino]-N,N-dimethyl-5-morpholin-4-yl-benzamide], the IC50 is 455 nM.
Regarding `COc1ccc(C)c(N(C)c2ccnc(Nc3cc(N4CCOCC4)cc(N4CCN(C)CC4)c3)n2)c1` [Example 12.4, N′-(5-methoxy-2-methyl-phenyl)-N′-methyl-N-[3-(4-methylpiperazin-1-yl)-5-morpholin-4-yl-phenyl]pyrimidine-2,4-diamine], the IC50 turned out to be 171 nM.
Consider `COc1ccc(C)c(N(C)c2ccnc(Nc3cc(N4CCOCC4)cc(N4CCC(O)CC4)c3)n2)c1` [Example 12.5, 1-(3-(4-((5-methoxy-2-methylphenyl)(methyl)amino)pyrim-idin-2-ylamino)-5-morpholinophenyl)piperidin-4-ol], for which the half-inhibitory concentration (IC50) was determined as 2.95 nM.
For the compound `COc1ccc(C)c(N(C)c2ccnc(Nc3cc(N4CCNCC4)cc(N4CCOCC4)c3)n2)c1` [Example 12.6, N4-(5-methoxy-2-methylphenyl)-N4-methyl-N2-(3-morpholino-5-(piperazin-1-yl)phenyl)pyrimidine-2,4-diamine], the 50% inhibitory concentration (IC50) came to 3.4 nM.
Regarding `COc1ccc(C)c(N(C)c2ccnc(Nc3cc(N4CCOCC4)cc(N4CCOCC4=O)c3)n2)c1` [Example 12.7, 4-[3-[[4-[(5-methoxy-2-methyl-phenyl)-methyl-amino]pyrimidin-2-yl]amino]-5-morpholin-4-yl-phenyl]morpholin-3-one], the half-inhibitory concentration (IC50) came out at 305 nM.
As for `COc1ccc(C)c(N(C)c2ccnc(Nc3cc(N4CCOCC4)cc(N4CCOC[C@@H]4C)c3)n2)c1` [Example 12.8, (S)-N4-(5-methoxy-2-methylphenyl)-N4-methyl-N2-(3-(3-methylmorpholino)-5-morpholinophenyl)pyrimidine2,4-diamine], the IC50 came to 5.82 nM.
